Several values for one entry are separate records, joined by “and”; a condition that tells them apart may be missing. Identical values can stand only once. Like-named read-outs stand apart in the source and are kept apart here. A value given as a limit tells only on which side of the number the result lay.

One series concerns α-glucosidases. In words: Inhibition of α-glucosidases (summary statement). In kind it is biochemical. Particulars: only just reaching 50% inhibition at nearly mM concentration. The source says: (§1) The results tabulated below were obtained using commercially available glycosidases and p-nitrophenyl-substrates using standard methods described for example by Watson et al (1997) Phytochemistry 46 255-259. All enzymes and substrates were bought from Sigma. Enzyme and substrate solutions were made using sodium phosphate buffers at the pH optima values. The enzymes used were α-D-glucosidase Saccharomyces cerevisiae, Bacillus stearothermophilus, Oryzae sativa), β-D-glucosidase (Almond), α-D-mannosidase (Jack bean), α-D-galactosidase (Green coffee beans), β-D-galactosidase (Bovine liver), α-L-fucosidase (Bovine kidney), N-acetyl-β-D-glucosaminidase (Bovine kidney, Jack bean, Aspergillus oryzae), Naringinase (Penicillium decumbens) and amyloglucosidase (Aspergillus niger). All enzymes were used with the appropriate p-nitrophenyl substrates (5 mM). Amyloglucosidase activity was measured using amylopectin (0.1%) (Merck) mixed with sodium phosphate buffer, pH 4.5 in a glass bottle, and healed in a boiling water bath for 20 minutes to dissolve with released glucose measured using ‘Trinder’ glucose detection solution (Sigma).

Another series deals with T1, rat intestinal sucrase (Rattus norvegicus, UniProt P23739).
T1 construct: Enzyme activities were prepared from brush border membranes of rat small intestine; from tissue; host or cells: rat small intestine brush border membranes
T1 sequence (P23739 whole entry): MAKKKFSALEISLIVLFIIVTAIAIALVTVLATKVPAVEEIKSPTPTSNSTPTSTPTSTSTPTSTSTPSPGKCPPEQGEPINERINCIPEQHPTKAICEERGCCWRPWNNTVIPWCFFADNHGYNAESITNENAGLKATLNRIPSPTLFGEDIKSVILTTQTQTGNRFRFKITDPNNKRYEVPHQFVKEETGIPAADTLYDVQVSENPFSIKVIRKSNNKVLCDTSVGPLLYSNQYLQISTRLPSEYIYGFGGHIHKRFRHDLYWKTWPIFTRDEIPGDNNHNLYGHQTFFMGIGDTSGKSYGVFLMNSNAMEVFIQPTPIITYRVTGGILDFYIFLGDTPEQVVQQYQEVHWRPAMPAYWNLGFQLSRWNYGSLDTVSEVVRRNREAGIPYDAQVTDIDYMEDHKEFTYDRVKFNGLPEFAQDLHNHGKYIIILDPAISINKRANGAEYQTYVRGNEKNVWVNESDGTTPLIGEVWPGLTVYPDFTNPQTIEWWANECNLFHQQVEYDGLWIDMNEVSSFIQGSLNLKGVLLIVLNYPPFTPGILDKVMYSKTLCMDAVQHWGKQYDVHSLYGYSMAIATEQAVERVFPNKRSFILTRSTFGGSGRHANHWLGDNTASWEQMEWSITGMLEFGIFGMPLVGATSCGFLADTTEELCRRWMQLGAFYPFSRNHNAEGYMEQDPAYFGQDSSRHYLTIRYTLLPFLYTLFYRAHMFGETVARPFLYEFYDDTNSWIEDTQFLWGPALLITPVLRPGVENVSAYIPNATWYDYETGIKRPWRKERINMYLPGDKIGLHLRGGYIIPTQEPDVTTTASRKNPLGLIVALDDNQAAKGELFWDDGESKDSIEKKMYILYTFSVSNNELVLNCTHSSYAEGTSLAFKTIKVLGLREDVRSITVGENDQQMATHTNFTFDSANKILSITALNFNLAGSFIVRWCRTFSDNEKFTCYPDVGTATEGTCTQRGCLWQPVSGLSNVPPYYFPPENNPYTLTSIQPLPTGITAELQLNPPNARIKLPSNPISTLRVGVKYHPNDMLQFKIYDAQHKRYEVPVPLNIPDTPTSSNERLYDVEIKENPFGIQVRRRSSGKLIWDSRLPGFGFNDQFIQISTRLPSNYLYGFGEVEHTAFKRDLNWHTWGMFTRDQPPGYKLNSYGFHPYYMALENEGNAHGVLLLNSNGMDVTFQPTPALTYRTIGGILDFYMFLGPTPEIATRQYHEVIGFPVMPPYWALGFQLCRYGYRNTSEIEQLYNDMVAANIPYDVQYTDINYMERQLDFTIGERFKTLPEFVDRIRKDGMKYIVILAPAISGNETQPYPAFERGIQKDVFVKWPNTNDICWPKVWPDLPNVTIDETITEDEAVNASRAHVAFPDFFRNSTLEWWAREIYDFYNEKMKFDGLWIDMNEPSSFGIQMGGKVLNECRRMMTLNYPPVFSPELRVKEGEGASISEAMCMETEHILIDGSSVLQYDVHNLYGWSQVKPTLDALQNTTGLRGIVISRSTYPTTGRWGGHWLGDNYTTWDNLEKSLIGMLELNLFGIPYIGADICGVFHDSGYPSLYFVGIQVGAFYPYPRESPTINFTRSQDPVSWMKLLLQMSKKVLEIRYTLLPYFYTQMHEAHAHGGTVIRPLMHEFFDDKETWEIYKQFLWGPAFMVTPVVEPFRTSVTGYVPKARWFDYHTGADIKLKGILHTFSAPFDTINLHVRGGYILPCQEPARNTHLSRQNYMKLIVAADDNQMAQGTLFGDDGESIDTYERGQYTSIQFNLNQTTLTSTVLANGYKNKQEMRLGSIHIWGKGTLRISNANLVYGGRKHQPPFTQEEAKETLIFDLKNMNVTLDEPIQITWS
In words: Rat intestinal glycosidases: sucrase. The note with it: rat intestinal brush border membranes. In kind it is biochemical. The procedure: (§2) Enzyme activities were prepared from brush border membranes of rat small intestine using disaccharides as substrates as described by Yasuda et al., 2002.

In series [1] the target is T2, rat intestinal cellobiase (Rattus norvegicus, UniProt Q02401).
T2 construct: Enzyme activities were prepared from brush border membranes of rat small intestine; from tissue; host or cells: rat small intestine brush border membranes
T2 sequence (Q02401 868-1928): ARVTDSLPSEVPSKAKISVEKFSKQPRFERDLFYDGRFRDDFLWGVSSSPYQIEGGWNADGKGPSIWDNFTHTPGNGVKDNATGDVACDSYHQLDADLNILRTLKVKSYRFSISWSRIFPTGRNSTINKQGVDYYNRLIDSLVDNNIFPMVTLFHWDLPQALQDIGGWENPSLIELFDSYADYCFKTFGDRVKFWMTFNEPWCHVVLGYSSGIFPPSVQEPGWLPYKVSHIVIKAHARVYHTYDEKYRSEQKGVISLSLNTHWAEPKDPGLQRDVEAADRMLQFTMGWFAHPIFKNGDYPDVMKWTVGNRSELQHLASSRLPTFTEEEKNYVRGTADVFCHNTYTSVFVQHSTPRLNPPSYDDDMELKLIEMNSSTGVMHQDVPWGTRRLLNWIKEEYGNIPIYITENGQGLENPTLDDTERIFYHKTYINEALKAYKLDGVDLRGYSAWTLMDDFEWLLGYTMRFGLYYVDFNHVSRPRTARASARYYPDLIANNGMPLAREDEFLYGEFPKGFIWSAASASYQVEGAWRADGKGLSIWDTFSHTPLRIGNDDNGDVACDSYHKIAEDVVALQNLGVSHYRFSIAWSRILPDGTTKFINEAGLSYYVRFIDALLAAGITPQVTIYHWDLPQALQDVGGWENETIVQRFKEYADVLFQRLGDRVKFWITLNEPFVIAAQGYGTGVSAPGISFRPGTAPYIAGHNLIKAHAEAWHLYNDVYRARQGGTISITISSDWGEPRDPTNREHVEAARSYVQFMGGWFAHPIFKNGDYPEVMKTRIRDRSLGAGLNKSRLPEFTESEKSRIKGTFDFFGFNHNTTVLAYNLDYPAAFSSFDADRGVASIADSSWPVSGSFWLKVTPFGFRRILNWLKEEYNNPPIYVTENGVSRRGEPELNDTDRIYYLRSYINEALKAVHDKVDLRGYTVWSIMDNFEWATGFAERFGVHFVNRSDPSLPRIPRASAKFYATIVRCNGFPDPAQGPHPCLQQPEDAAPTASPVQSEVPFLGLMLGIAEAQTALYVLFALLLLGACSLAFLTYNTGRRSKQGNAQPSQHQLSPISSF
In words: Rat intestinal glycosidases: cellobiase. In kind it is biochemical. Particulars: rat intestinal brush border membranes. The procedure:
as §2

Series [2] deals with β-D-mannosidase Cellullomonas fimi. The series is described as follows: Glycosidase inhibition: β-D-mannosidase Cellullomonas fimi. In kind it is biochemical. The note with it: compounds tested at 0.8 mM. Here is the method:
(§3) All enzymes and para-nitrophenyl substrates were purchased from Sigma, with the exception of beta-mannosidase which came from Megazyme. Enzymes were assayed at 27° C. in 0.1M citric acid/0.2M disodium hydrogen phosphate buffers at the optimum pH for the enzyme. The incubation mixture consisted of 10 μl enzyme solution, 10 μl of 1 mg/ml aqueous solution of extract and 50 μl of the appropriate 5 mM para-nitrophenyl substrate made up in buffer at the optimum pH for the enzyme. The reactions were stopped by addition of 70 μl 0.4M glycine (pH 10.4) during the exponential phase of the reaction, which had been determined at the beginning using uninhibited assays in which water replaced inhibitor. Final absorbances were read at 405 nm using a Versamax microplate reader (Molecular Devices). Assays were carried out in triplicate, and the values given are means of the three replicates per assay. (See Watson, A. A., Nash, R. J., Wormald, M. R., Harvey, D. J., Dealler, S., Lees, E., Asano, N., Kizu, H., Kato, A., Griffiths, R. C., Cairns, A. J. and Fleet, G. W. J. (1997). Glycosidase-inhibiting pyrrolidine alkaloids from Hyacinthoides non-scripta. Phytochemistry 46 (2): 255-259.)

For series [3], the target named is rat intestinal maltase. The series is described as follows: Rat intestinal glycosidases: maltase. Particulars: rat intestinal brush border membranes. In kind it is biochemical. The procedure:
as §2

Series [4] in a line: Uptake of G2 after oral Gymnema water extract, urine monitoring. In kind it is in vivo, human. Particulars: one volunteer. Here is the method: In a preliminary experiment on one volunteer to determine if G2 was readily absorbed from the gastrointestinal tract, a water extract of Gymnema leaves obtained commercially containing 7 mg of G2 was drunk and urine monitored for G2 over 4 hours (0-2 hours and 2-4 hours). An internal standard of 1 mg of castanospermine was added to the two samples of urine prior to applying to a cation exchange resin (IR120 in the H^+ form). After washing the resin with copious water, the bound material was displaced wing excess 2M NH4^+ solution and dried for GC-MS analysis. The samples were derivatised using Pierce Tri-Sil to produce trimethyl-silyl-derivatives of the imino sugars and imino sugar acids. GC-MS was carried out on a Perkin Elmer TurboMass Gold mass spectrometer, with a quadrupole ion filter system, which was run at 250° C. constantly during analysis. The detector mass range was set to 100 to 650 amu. The temperature of the transfer line (GC to MS) was held at 250° C. The GC column was a […] fused-silica column (Varian ‘Factor Four’ VF-5 ms column, 25 m×0.25 mm i.d., 0.25 μm phase thickness). The carrier gas (helium) flow rate was 1 ml min-1. G2 gives a characteristic mass spectrum as the tms derivative and was well resolved allowing quantification.

Series [5] deals with Naringinase Penicillium decumbens. The series is described as follows: Glycosidase inhibition: Naringinase Penicillium decumbens. In kind it is biochemical. The note with it: compounds tested at 0.8 mM.
Source text: as §1
as §3, with “(See Watson, A. A., Nash, R. J., Wormald, M. R., Harvey, D. J., Dealler, S., Lees, E., Asano, N., Kizu, H., Kato, A., Griffiths, R. C., Cairns, A. J. and Fleet, G. W. J. (1997). Glycosidase-inhibiting pyrrolidine alkaloids from Hyacinthoides non-scripta. Phytochemistry 46 (2): 255-259.)” left out

The nature of a further series: Solubility in water. In kind it is physicochemical.
A further series relates to ddy mice. In words: Blood glucose levels after maltose loading in ddy mice. In kind it is in vivo. Here is the method: 7 weeks old ddy mice (weight 30-31 g) were divided into 4 groups (from group 1 to 4). Each group had 5 mouse. All test mouse were fasted for 16 hours for this experiment.
The aim of this experiment was to show if G2 (here coded as BR1) could suppress a hyperglycemia after a meal. Thus, maltose was chosen as the loading sugar as used for Bayer's glucosidase inhibitor Glucobay. Either maltose (2.5 g/kg) or Surose (2.5 g/kg) or starch (1.0 g/kg) can be used but maltose is most popular.
Group 1: Control. Maltose-loading only (without G2 condition). Group 2: oral administration of G2 with maltose (same time). Group 3: intraperitoneal injection of G2 and oral administration of maltose (same time). Group 4: oral administration of G2 30 minutes before maltose-loading. (Glucobay is taken 30 minutes before meals).

The next series deals with T3, rat intestinal lactase (Rattus norvegicus, UniProt Q02401).
T3 construct: Enzyme activities were prepared from brush border membranes of rat small intestine; from tissue; host or cells: rat small intestine brush border membranes
T3 sequence (Q02401 868-1928): as above
In words: Rat intestinal glycosidases: lactase. In kind it is biochemical. The note with it: rat intestinal brush border membranes. Here is the method:
as §2

The target in series [6] is T4, rat intestinal isomaltase (Rattus norvegicus, UniProt P23739).
T4 construct: Enzyme activities were prepared from brush border membranes of rat small intestine; from tissue; host or cells: rat small intestine brush border membranes
T4 sequence (P23739 whole entry): as the sequence (P23739 whole entry) above
The series is described as follows: Rat intestinal glycosidases: isomaltase. In kind it is biochemical. The note with it: rat intestinal brush border membranes. The procedure:
as §2

The target in another series is rat intestinal trehalase (Rattus norvegicus, UniProt G3V7Q9). In words: Rat intestinal glycosidases: trehalase. In kind it is biochemical. Particulars: rat intestinal brush border membranes. The procedure:
as §2

Series [7] concerns N-acetyl-β-D-glucosaminidase (Bovine kidney). In words: Glycosidase inhibition: N-acetyl-β-D-glucosaminidase (Bovine kidney).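 As to all read-outs here: enzyme activity followed by cleavage of the matching p-nitrophenyl glycoside (5 mM) in phosphate buffer set to the enzyme's optimal pH.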 In kind it is biochemical. The note with it: for % inhibition, N-acetyl-β-D-glucosaminidase (Bovine kidney): compounds tested at 0.8 mM.
A short description of another series: Storage stability. In kind it is physicochemical. Particulars: all normal laboratory storage conditions.
The test system of series [8] is N-acetyl-β-D-glucosaminidase (Jack bean). In words: Glycosidase inhibition: N-acetyl-β-D-glucosaminidase (Jack bean). In kind it is biochemical. The note with it: compounds tested at 0.8 mM.
Source text: as §1
as §3, with “(See Watson, A. A., Nash, R. J., Wormald, M. R., Harvey, D. J., Dealler, S., Lees, E., Asano, N., Kizu, H., Kato, A., Griffiths, R. C., Cairns, A. J. and Fleet, G. W. J. (1997). Glycosidase-inhibiting pyrrolidine alkaloids from Hyacinthoides non-scripta. Phytochemistry 46 (2): 255-259.)” left out

A further series deals with glucuronidase (Homo sapiens, UniProt P08236). Particulars: Booth et al. (2007) and references therein; cited from earlier work.
Sequence of glucuronidase (P08236 23-651): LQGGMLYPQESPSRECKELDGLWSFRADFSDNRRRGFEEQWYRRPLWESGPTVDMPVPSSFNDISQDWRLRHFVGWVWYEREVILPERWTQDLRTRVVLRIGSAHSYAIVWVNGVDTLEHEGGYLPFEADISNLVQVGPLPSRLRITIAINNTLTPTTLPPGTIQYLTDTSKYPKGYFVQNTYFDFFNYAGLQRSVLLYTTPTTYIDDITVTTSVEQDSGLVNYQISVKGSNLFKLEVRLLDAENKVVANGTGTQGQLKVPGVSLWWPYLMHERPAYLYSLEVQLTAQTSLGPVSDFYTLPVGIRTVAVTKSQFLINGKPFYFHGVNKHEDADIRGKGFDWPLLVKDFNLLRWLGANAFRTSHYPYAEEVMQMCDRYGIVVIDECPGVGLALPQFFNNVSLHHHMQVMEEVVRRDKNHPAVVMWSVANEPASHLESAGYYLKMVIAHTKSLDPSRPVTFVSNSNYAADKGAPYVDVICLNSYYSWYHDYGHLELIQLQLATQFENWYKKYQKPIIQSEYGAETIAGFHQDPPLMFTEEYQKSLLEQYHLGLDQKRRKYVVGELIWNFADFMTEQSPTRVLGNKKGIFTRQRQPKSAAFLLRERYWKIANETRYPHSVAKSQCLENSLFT
For series [9], the target named is rat intestinal maltase. The note with it: from Yasuda et al., 2002; cited from earlier work.

Sequence of rat intestinal trehalase (G3V7Q9 21-553): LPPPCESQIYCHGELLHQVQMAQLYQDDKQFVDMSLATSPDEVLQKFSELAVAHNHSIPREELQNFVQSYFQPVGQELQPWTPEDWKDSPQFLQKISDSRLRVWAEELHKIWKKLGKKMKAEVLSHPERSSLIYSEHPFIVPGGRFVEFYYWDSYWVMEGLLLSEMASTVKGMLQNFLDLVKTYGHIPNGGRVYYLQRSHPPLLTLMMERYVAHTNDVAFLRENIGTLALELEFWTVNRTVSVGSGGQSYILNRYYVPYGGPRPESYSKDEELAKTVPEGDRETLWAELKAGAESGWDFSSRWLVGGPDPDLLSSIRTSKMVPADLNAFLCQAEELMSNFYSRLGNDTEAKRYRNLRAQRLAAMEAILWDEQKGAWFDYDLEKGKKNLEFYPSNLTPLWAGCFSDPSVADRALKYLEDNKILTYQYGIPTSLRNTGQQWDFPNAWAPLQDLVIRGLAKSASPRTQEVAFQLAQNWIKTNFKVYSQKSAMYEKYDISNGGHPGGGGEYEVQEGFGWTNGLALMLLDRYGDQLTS

What is called IC50 is the concentration needed to halve the response being measured. With `O=C(O)[C@H]1NC[C@H](O)[C@@H](O)[C@@H]1O` [Compound G2, 2S,3R,4R,5S-trihydroxypiperidine-2-carboxylic acid], the “inhibition of α-glucosidases” value in the series on α-glucosidases is recorded as “very weak inhibitor”. Moreover, the IC50 (on rat intestinal sucrase; in series [1]; against rat intestinal maltase [3]; at rat intestinal lactase; in series [6]; against rat intestinal trehalase) was greater than 1000 µM throughout. For the same compound, the “% inhibition, β-D-mannosidase Cellullomonas fimi” value in [2] is on record as “NI (NI = no inhibition)”. Besides, in series [4] (oral water extract containing 7 mg of G2, within four hours), the “G2 recovered in urine” value is given as roughly 7 mg. In addition, in [4] (oral water extract of Gymnema leaves containing 7 mg of G2, urine 0-2 hours and 2-4 hours), the G2 in urine entry is on record as “detected”. Moreover, the “% inhibition, Naringinase Penicillium decumbens” value in [5] is on record as “NI (NI = no inhibition)”. Moreover, the solubility in water entry in “Solubility in water” is on record as “freely soluble”. The “absorption into the blood” value in the series with ddy mice (inferred from p.o. and i.p. curves being almost same) is recorded as “absorbed into the blood very quickly”. In the series on ddy mice (p.o. with maltose, i.p. with maltose, or p.o. 30 minutes before maltose (2.5 g/kg)), the “blood glucose level (hyperglycemia) after maltose loading” value is given as “suppress hyperglycemia”. In series [7], the “% inhibition, N-acetyl-β-D-glucosaminidase (Bovine kidney)” value is on record as “NI (NI = no inhibition)”. Besides, the stability entry in the series “Storage stability” is given as “stable”. The “% inhibition, N-acetyl-β-D-glucosaminidase (Jack bean)” value in series [8] turned out to be 10%. The inhibition of glucuronidase entry at glucuronidase is “weak inhibitor”.
For `O=C(O)CCN1C[C@H](O)[C@@H](O)[C@H](O)[C@H]1CO` [Compound T1], the “% inhibition, N-acetyl-β-D-glucosaminidase (Bovine kidney)” value in [7] came out at 86.1%. The IC50 stood at 32.2 µM in series [7] (read-out: IC50, N-acetyl-β-D-glucosaminidase (Bovine kidney)) and 32 µM in series [7] (read-out: IC50 against mammalian 6-N-acetylglucosaminidase (hexosaminidase)).
Consider `OC[C@H]1NC[C@H](O)[C@@H](O)[C@@H]1O` [DNJ, 1-deoxynojirimycin, reference compound], for which the “% inhibition, Naringinase Penicillium decumbens” value in [5] was 20% and 21%. In addition, at rat intestinal maltase [9], the IC50 is 0.36 µM. The “% inhibition, N-acetyl-β-D-glucosaminidase (Jack bean)” value in series [8] is listed as “NI (NI = no inhibition)”.

These data come from patent publication US20110015226A1, “Treatment of Energy Utilization Disease” (SUMMIT CORPORATION PLC, priority 2008, published 2011).
